Tests used:
[1] = tested on: peripheral blood B lymphocyte AHH1 cells; assay: Differential toxicity, antiproliferative assay; type: cell-based; conditions: Homo sapiens, AHH-1; 48 h treatment; read-out: IC50 against AHH1 cells
Method: U937 histiocytic lymphoma, HL60 acute promyelocytic leukemia, H1299 lung adenocarcinoma, MCF7 breast carcinoma, HT1080 fibrosarcoma, M14 melanoma, HeLa epithelial cervix carcinoma and peripheral blood B lymphocyte AHH1 human cell lines were obtained from the Deutsche Sammlung für Mikroorganismen and Zellkulturen (DSZM, Braunschweig, Germany) and were maintained in RPMI 1640 medium contained 10% fetal bovine serum (FBS), 2 mM L-glutamine, and antibiotics in a humidified atmosphere with 5% CO2 at 37 °C. […]
Then, increasing concentrations of different compounds (ranging from 0.01 to 100 μM) were added, and cell proliferation was evaluated by a MTT assay after 48 h. […] The effect of compounds was evaluated using the CellTiter-Glo luminescent cell viability assay (Promega, Madison, WI, USA) according to the manufacturer’s instructions. […] After treatments, MTT solution was added for 3 h at 0.5 mg/mL, the obtained crystals were dissolved in DMSO (Sigma-Aldrich, Milan, Italy), and the absorbance was read at a wavelength of 570 nm with reader TECAN M-200. […]
IC50 values of compounds against cellular viability were determined by using nonlinear regression fitting curves with GraphPad Prism 8. […]

[2] = tested on: HCT116 human colorectal carcinoma; assay: Antiproliferative activity, MTT; type: cell-based; conditions: HCT-116, 48 h treatment, read-out: Antiproliferative Activity (IC50 ± SD) HCT116
Summary of the method: (§1)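 IC50 values derive from nonlinear curve fitting of MTT-measured proliferation after 48 h of exposure to 0.01–100 μM compound. Early-passage cells in exponential growth were cultured in RPMI 1640 containing 10% FBS, with DMSO-exposed cells serving as control.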

HL60 APL cells = assay: Antiproliferative activity, MTT; type: cell-based; conditions: Homo sapiens, HL-60, 48 h treatment, read-out: Antiproliferative Activity (IC50 ± SD) HL60
Summary of the method: (§2)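 Exponentially growing cells in RPMI 1640 with 10% FBS received compounds at 0.01–100 μM for 48 h; DMSO-treated cells as control. MTT (0.5 mg/mL, 3 h), crystals dissolved in DMSO, absorbance at 570 nm; IC50 by nonlinear regression, triplicate, repeated at least three times.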

[3] = tested on: HT1080 human fibrosarcoma; assay: Antiproliferative activity, MTT; type: cell-based; conditions: HT-1080, 48 h treatment, read-out: Antiproliferative Activity (IC50 ± SD) HT1080
Summary of the method: as §2

M14 human melanoma = assay: Antiproliferative activity, MTT; type: cell-based; conditions: 48 h treatment, read-out: Antiproliferative Activity (IC50 ± SD) M14
Summary of the method: as §1

[4] = tested on: MCF-7 human breast adenocarcinoma; assay: Antiproliferative activity, MTT; type: cell-based; conditions: MCF7, 48 h treatment, read-out: Antiproliferative Activity (IC50 ± SD) MCF-7
Summary of the method: as §1

DNMT1 protein = target: T1, DNMT1 protein (Homo sapiens, UniProt P26358); assay: Western blot of DNMT1 protein level in HCT116 cells; type: cell-based; conditions: HCT116, 1 µM, 24 h
T1 construct: endogenous in cells; host or cells: HCT116
T1 sequence (P26358 whole entry): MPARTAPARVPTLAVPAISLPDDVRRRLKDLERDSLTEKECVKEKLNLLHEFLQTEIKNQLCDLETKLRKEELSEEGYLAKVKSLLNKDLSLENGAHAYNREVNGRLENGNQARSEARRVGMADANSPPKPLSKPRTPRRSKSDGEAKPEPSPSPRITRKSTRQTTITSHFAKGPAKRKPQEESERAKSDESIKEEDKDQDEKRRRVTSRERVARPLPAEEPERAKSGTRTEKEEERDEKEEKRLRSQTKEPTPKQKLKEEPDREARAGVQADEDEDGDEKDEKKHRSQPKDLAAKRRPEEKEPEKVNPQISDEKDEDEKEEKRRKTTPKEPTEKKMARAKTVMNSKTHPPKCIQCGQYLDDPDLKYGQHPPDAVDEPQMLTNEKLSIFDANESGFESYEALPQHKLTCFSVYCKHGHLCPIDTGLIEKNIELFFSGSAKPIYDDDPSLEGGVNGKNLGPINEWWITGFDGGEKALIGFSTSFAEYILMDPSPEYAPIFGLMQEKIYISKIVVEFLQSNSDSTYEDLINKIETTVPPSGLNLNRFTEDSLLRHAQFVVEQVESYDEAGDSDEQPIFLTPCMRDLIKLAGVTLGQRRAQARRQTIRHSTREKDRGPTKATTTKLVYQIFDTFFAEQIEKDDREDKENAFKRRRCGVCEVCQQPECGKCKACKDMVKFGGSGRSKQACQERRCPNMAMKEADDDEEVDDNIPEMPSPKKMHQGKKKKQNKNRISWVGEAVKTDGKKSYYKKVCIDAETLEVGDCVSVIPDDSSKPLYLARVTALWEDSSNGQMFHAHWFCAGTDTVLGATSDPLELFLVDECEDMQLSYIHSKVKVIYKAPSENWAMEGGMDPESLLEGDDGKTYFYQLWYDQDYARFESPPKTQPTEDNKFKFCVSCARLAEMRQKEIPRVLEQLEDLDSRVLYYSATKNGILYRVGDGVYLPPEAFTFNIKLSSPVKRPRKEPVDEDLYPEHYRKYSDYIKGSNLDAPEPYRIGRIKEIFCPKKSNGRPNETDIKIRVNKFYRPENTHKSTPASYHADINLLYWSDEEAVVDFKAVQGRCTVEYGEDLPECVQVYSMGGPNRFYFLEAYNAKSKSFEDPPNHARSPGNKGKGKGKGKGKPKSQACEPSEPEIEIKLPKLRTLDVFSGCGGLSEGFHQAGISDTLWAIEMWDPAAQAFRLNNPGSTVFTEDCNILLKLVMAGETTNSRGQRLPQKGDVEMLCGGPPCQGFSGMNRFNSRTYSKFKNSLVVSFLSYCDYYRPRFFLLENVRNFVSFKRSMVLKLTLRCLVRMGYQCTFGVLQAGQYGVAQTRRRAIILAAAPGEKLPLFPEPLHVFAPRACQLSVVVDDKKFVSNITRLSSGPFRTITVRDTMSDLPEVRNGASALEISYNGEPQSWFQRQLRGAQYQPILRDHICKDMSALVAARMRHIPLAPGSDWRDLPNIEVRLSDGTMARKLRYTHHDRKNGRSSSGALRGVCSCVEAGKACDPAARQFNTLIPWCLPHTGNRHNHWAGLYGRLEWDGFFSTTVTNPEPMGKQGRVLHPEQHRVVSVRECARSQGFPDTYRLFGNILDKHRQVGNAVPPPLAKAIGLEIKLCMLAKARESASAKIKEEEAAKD
Description: Cells were lysed in Laemmli buffer; subsequently the proteins were resolved by sodium dodecyl sulphate-polyacrylamide gel electrophoresis and transferred to a 0.45 µm nitrocellulose membrane (Bio-Rad Laboratories, Hercules, CA, USA). The following primary antibodies were used for immunoblotting: α-DNMT1 (Novus Biologicals, Littleton, CO, USA). α-DNMT3a (SantaCruz Bio-technologies, CA, USA) and α-GAPDH (Millipore Corp., Bedford, MA USA), used as a loading control. The immune complexes were detected with horseradish peroxidase-conjugated species-specific secondary antiserum (Bio-Rad Laboratories, Hercules, CA, USA) then by enhanced chemiluminescence reaction (Bio-Rad Laboratories, Hercules, CA, USA). Densitometric analysis of protein expression was performed by using the Fiji-Image J image processing package.

[5] = tested on: luciferase reporter under methylated CMV promoter in KG-1 leukemia cells; assay: CMV-luc assay in KG-1 cells; type: cell-based; conditions: KG-1 CMV-luc, vs DMSO
Method: The assay was carried out as described by Rilova et al.. The KG-1 cell line was stably transfected with the luciferase firefly (Luc^+ from pGL3 by Promega, Madison, WI, USA) reporter gene under the control of a methylated CMV promoter (from pEGFP-N1 by Clontech) and selected for the maintenance of the methylation of CMV and luciferase expression silencing (KG-1 CMV-luc). The stably integrated KG-1 CMV-luc cells are cultivated in RPMI-1640 medium (Lonza, Strasbourg, France), supplemented with 10% FCS (Lonza, Strasbourg, France) and 0.5 mg/mL of geneticin (Sigma-Aldrich, Saint-Quentin Fallavier, France), under 5% CO2, at 37 °C and seeded at 20,000 cells per well in 96-well plates. After 5 or 24 h of incubation in the presence of compounds or the solvent DMSO, the induction of the promoter is measured by quantification of luciferase with the Brite-lite assay system (PerkinElmer, Villebon-sur-Yvette, France) according to the manufacturer’s protocol. The luminescence is measured on an EnVision Multilabel Plate Reader (PerkinElmer, Villebon-sur-Yvette, France), and the data are expressed as fold induction compared to DMSO control. The mean of 2–4 experiments and its standard error are reported.

[6] = tested on: methylated UCHL1 promoter (pUCHL1) in HCT116 cells; assay: UCHL1 promoter demethylation assay (EGFP induction, FACS); type: cell-based, human; conditions: five days
Method: The assay was performed as described in [29]. Briefly, human colon cancer HCT116 (ATCC, VA, USA) cells were grown in Dulbecco’s Modified Eagle Medium (DMEM; Euroclone, Milan, Italy) supplemented with 10% fetal bovine serum (FBS; Euroclone, Milan, Italy), 2 mM L-glutamine (Euroclone), and antibiotics (100 U/mL penicillin, 100 µg/mL streptomycin) (Euroclone). The pUMLIEP vector (composed by MetLuc-IRES-EGFP construct upon the control of the ubiquitin carboxyl-terminal hydrolase L1 (UCHL1)) was linearized and methylated by with ClaI and SssI-methylase enzymes (New England Biolabs, Milan, Italy). After, methylated pUMLIEP was transfected into HCT116 cells following the protocol described in [30]. […] On day 5, cells were observed under by a fluorescent microscope (Cytation 5 Cell Imaging Multi-Mode Reader (BioTeK Milan, Italy) and BD Accuri flow cytometers. Nuclei were counterstained with DAPI (10 µg/mL, Invitrogen, Tournai, Belgium).

Row | Compound | IC50 [1] [nM] | IC50 [2] [nM] | IC50 (HL60 APL cells) [nM] | IC50 [3] [nM] | IC50 (M14 human melanoma) [nM] | IC50 [4] [nM] | DNMT1 protein level (western blot) (DNMT1 protein) | Luciferase Expression (Fold ± SD) ([5]; 0.5 µM) [fold] | Luciferase Expression (Fold ± SD) ([5]; 1 µM) [fold] | Luciferase Expression (Fold ± SD) ([5]; 5 µM) [fold] | Luciferase Expression (Fold ± SD) ([5]; 10 µM) [fold] | Luciferase Expression (Fold ± SD) ([5]; 25 µM) [fold] | pUCHL1 demethylation, EGFP-positive cells (FACS R1) ([6]; HCT116, 0.1 µM) [%] | pUCHL1 demethylation, EGFP-positive cells (FACS R1) ([6]; HCT116, 0.5 µM) [%] | DNMT1 protein level (western blot) with bortezomib (DNMT1 protein; co-treated with bortezomib 10 nM)
1 | O=C(Nc1cccc(Nc2ccnc3ccccc23)c1)c1cccc(Nc2ccnc3ccccc23)c1 [Compound 2b] | 3300 | 1500 ± 300 | 1600 ± 200 | 2700 ± 400 | 4700 ± 600 | 300 ± 60 | decrease | – | – | – | – | – | – | – | –
2 | O=C(Nc1ccc(NC(=O)c2cccc(Nc3ccnc4ccccc34)c2)cc1)OCc1ccccc1 [Compound 4a] | – | 23900 ± 2600 | 300 ± 60 | 19500 ± 2800 | 69000 ± 8100 | – | – | 1.05 ± 0.12 | 1.02 ± 0.07 | 1.04 ± 0.16 | 1.45 ± 0.39 | 1.60 ± 1.00 | – | – | –
3 | O=C(Nc1cccc(Nc2ccnc3ccccc23)c1)c1ccc(Nc2ccnc3ccccc23)cc1 [Compound 2c] | – | 2300 ± 500 | 1900 ± 300 | 2600 ± 600 | 3800 ± 700 | 2200 ± 400 | – | – | – | – | – | – | 42.3 | – | –
4 | O=C(Nc1ccc(Nc2ccnc3ccccc23)cc1)c1cccc(Nc2ccnc3ccccc23)c1 [Compound 2a] | – | 1000 ± 200 | 200 ± 30 | 500 ± 90 | 500 ± 80 | 4100 ± 700 | – | 1.02 ± 0.04 | 1.05 ± 0.12 | 19.94 ± 4.26 | 4.66 ± 1.63 | 1.59 ± 0.59 | – | – | –
5 | O=C(Nc1cccc(NC(=O)c2ccc(Nc3ccnc4ccccc34)cc2)c1)OCc1ccccc1 [Compound 4c] | 9600 | 17700 ± 2400 | 300 ± 70 | 3900 ± 800 | 4500 ± 800 | – | decrease | 0.96 ± 0.01 | 0.87 ± 0.05 | 40.40 ± 12.75 | 28.51 ± 3.39 | 8.07 ± 1.96 | – | 58.7 | rescued
